Reference: US9440978B2, “Imidazolo-, oxazolo-, and thiazolopyrimidine modulators of TRPV1” (Janssen Pharmaceutica NV, priority 2007, dated 2016)
Counter-ions that a name gives are not always drawn. Like-named read-outs stand apart in the source and are kept apart here.

Key:
human TRPV1 = biological target: T1, human TRPV1 (Homo sapiens, UniProt Q8NER1); assay: Block of capsaicin-induced Ca2+ influx, human assay (hTRPV1/HEK293, FLIPR); type: cell-based; conditions: HEK293 cells transfected with human TRPV1; 150 nM capsaicin challenge; mean; > value = solubility limit in assay medium
T1 construct: expressed in transfected cells; host or cells: HEK293
Protocol: (§1) HEK293 cells were transfected with human TRPV1 cloned in pcDNA3.1zeo(+) using the Effectene non-liposomal lipid based transfection kit (Qiagen) (hTRPV1/HEK293). hTRPV1/HEK293 cells were routinely grown as monolayers under selection in zeocin (200 μg/mL; Invitrogen) in Dulbecco's Modified Eagle Medium (DMEM, Gibco BRL) supplemented with 10% fetal bovine serum, and penicillin/streptomycin (50 units/mL) in 5% CO2 at 37° C. Cells were passaged frequently, every 3-5 days, to avoid overgrowth, depletion of essential medium components, or acidic medium exposure. Cells were passaged using a brief wash in 0.05% trypsin with 1 mM EDTA, followed by dissociation in divalent-free phosphate-buffered saline (Hyclone #SH30028.02). […] The assay buffer was composed of 130 mM NaCl, 2 mM KCl, 2 mM MgCl2, 10 mM HEPES, 5 mM glucose, and either 2 mM or 20 μM CaCl2. On the day of the experiment, the culture medium was replaced with 2 mM calcium assay buffer using an automated plate washer (ELx405; Biotek, VT). […] After loading the cells, the dye solution was replaced with 50 μL/well of 20 μM calcium assay buffer using the ELx405 plate washer. Test compounds (50 μL/well) were added to the plate and incubated for 30 min. Intracellular Ca^2+ levels were subsequently assayed using a Fluorometric Imaging Plate Reader (FLIPR™ instrument, Molecular Devices, CA) to simultaneously monitor Fluo-3 fluorescence in all wells (λexcitation=488 nm, λemission=540 nm) during challenge with agonist (capsaicin). The IC50 values were determined. […] The contents of the wells were mixed 3 times (40 μL mix volume) immediately after the additions were made. Concentration-dependence of block was determined by exposing each well of cells in duplicate rows of a 96-well plate to a serial dilution of test compound. The concentration series usually started at 10 μM with a three-fold serial decrement in concentration. The magnitude of the capsaicin response was determined by measuring the change in fluo3 fluorescence before and 100 seconds after the addition of the agonist. Data were analyzed using a non-linear regression program (Origin; OriginLab, MA).
(§2) IC50 values shown are the average (mean) of the results obtained. […] Compounds were tested as in the free base, trifluoroacetic acid salt, or hydrochloride salt form.

rat TRPV1 = biological target: T2, rat TRPV1 (Rattus norvegicus, UniProt O35433); assay: Block of capsaicin-induced Ca2+ influx, rat assay (rTRPV1/HEK293, FLIPR); type: cell-based
T2 construct: expressed in transfected cells; host or cells: HEK293
Protocol: as §1
This assay was performed similarly to the human assay described above, but using HEK293 cells transfected with rat TRPV1 (rTRPV1/HEK293).
as §2

[1] = HEK293 cells transfected with rat TRPV1, capsaicin challenge, mean, > value = solubility limit in assay medium, read-out: Rat IC50

T2 sequence (O35433 whole entry): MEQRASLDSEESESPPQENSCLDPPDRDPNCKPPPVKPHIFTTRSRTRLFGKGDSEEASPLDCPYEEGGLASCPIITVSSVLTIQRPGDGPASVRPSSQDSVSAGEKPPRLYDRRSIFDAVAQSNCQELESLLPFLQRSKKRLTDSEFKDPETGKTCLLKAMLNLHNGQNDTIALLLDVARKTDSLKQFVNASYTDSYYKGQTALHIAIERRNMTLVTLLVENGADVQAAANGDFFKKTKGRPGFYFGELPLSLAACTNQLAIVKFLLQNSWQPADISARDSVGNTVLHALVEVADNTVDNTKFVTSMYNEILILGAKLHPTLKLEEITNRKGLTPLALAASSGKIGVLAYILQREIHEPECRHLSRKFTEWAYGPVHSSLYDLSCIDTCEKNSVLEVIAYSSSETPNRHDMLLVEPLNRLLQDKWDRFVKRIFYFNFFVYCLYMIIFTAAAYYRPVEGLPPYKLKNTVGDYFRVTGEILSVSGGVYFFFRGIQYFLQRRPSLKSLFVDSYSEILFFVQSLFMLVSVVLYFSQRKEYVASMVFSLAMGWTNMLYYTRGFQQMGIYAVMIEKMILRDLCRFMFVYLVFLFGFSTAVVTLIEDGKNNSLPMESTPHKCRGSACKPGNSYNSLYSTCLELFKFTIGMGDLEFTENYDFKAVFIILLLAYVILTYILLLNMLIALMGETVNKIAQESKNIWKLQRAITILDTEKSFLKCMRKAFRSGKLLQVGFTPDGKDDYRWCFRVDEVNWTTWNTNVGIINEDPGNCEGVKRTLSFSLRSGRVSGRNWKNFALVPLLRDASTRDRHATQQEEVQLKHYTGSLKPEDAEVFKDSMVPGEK
T1 sequence (Q8NER1 whole entry): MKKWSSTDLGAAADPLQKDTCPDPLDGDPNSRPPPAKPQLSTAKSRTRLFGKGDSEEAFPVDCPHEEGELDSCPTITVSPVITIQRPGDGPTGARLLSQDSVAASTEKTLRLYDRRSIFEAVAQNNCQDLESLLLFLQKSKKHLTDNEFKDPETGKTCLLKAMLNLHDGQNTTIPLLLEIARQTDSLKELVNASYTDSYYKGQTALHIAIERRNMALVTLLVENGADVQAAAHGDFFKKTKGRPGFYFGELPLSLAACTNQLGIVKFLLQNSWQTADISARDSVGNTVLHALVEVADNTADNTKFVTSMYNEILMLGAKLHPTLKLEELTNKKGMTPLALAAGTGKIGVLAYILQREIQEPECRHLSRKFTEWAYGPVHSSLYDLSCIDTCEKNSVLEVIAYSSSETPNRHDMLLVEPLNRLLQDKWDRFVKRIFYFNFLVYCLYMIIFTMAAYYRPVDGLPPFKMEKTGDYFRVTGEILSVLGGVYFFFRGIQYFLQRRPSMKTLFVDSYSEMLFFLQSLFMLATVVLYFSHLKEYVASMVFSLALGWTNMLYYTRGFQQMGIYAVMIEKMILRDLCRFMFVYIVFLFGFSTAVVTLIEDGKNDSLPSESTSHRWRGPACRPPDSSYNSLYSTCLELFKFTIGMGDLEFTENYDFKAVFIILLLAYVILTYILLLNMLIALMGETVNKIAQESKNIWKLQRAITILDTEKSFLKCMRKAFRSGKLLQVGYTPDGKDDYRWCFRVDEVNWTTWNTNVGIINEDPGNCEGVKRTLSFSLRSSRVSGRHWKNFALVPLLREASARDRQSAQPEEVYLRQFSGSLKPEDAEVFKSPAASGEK

Structure (SMILES)	IC50 (human TRPV1) [nM]	IC50 (rat TRPV1; [1]) [nM]	IC50 (rat TRPV1) [nM]
FC(F)(F)c1ccc(Nc2nc(NCC3CCCCN3)nc3sc(Cc4c(Cl)cccc4Cl)nc23)cc1 (stereo not drawn) [Example 90, 2-(2,6-Dichlorobenzyl)-N^5-(piperidin-2-ylmethyl)-N^7-[4-(trifluoromethyl)phenyl][1,3]thiazolo[5,4-d]pyrimidine-5,7-diamine hydrochloride salt]	6050	9710	–
FC(F)(F)c1ccc(Nc2ncnc3sc(Cc4c(Cl)cccc4Cl)nc23)cn1 [Example 8, [2-(2,6-Dichloro-benzyl)-thiazolo[5,4-d]pyrimidin-7-yl]-(6-trifluoromethyl-pyridin-3-yl)-amine]	30	55	–
FC(F)(F)c1ccc(Nc2nc(NCCN3CCOCC3)nc3sc(Cc4c(Cl)cccc4Cl)nc23)cc1 [Example 65, 2-(2,6-Dichloro-benzyl)-N^5-(2-morpholin-4-yl-ethyl)-N^7-(4-trifluoromethyl-phenyl)-thiazolo[5,4-d]pyrimidine-5,7-diamine trifluoroacetic acid salt]	461	266	–
O=S(=O)(c1ccc(Nc2ncnc3sc(Cc4ccccc4C(F)(F)F)nc23)cc1)N1CCOCC1 [Example 52, N-[4-(Morpholin-4-ylsulfonyl)phenyl]-2-[2-(trifluoromethyl)benzyl][1,3]thiazolo[5,4-d]pyrimidin-7-amine]	59	44	–
FC(F)(F)c1ccc(Nc2ncnc3sc(Cc4ccccc4C(F)(F)F)nc23)nc1 [Example 95, 2-[2-(Trifluoromethyl)benzyl]-N-[5-(trifluoromethyl)pyridin-2-yl][1,3]thiazolo[5,4-d]pyrimidin-7-amine]	292	119	–
Cc1cccc(C)c1Cc1nc2c(Nc3ccc(S(=O)(=O)N4CCOCC4)cc3)ncnc2s1 [Example 60, 2-(2,6-Dimethylbenzyl)-N-[4-(morpholin-4-ylsulfonyl)phenyl][1,3]thiazolo[5,4-d]pyrimidin-7-amine]	209	204	–
CC(C)CNc1nc(Nc2ccc(C(F)(F)F)cc2)c2nc(Cc3c(Cl)cccc3Cl)sc2n1 [Example 69, 2-(2,6-Dichloro-benzyl)-N^5-isobutyl-N^7-(4-trifluoromethyl-phenyl)-thiazolo[5,4-d]pyrimidine-5,7-diamine]	31	14	–
FC(F)(F)c1ccc(Nc2nc(NCC3CCCNC3)nc3sc(Cc4c(Cl)cccc4Cl)nc23)cc1 (stereo not drawn) [Example 91, 2-(2,6-Dichlorobenzyl)-N^5-(piperidin-3-ylmethyl)-N^7-[4-(trifluoromethyl)phenyl][1,3]thiazolo[5,4-d]pyrimidine-5,7-diamine hydrochloride salt]	4050	3160	–
Cc1ccc(Nc2ncnc3sc(Cc4c(Cl)cccc4Cl)nc23)cc1 [Example 46, 2-(2,6-Dichlorobenzyl)-N-(4-methylphenyl)[1,3]thiazolo[5,4-d]pyrimidin-7-amine]	> 6670	52	–
FC(F)(F)c1ccc(Nc2nc(N3CCC(N4CCCC4)CC3)nc3sc(Cc4c(Cl)cccc4Cl)nc23)cc1 [Example 77, [2-(2,6-Dichloro-benzyl)-5-(4-pyrrolidin-1-yl-piperidin-1-yl)-thiazolo[5,4-d]pyrimidin-7-yl]-(4-trifluoromethyl-phenyl)-amine trifluoroacetic acid salt]	1120	4340	–
FC(F)(F)c1ccccc1Cc1nc2c(Nc3ccc(Br)cc3)ncnc2s1 [Example 49, N-(4-Bromophenyl)-2-[2-(trifluoromethyl)benzyl][1,3]thiazolo[5,4-d]pyrimidin-7-amine]	59	16	–
CC(C)C1CCCN1c1nc(Nc2ccc(C(F)(F)F)cc2)c2nc(Cc3c(Cl)cccc3Cl)sc2n1 (stereo not drawn) [Example 68, [2-(2,6-Dichloro-benzyl)-5-(2-isopropyl-pyrrolidin-1-yl)-thiazolo[5,4-d]pyrimidin-7-yl]-(4-trifluoromethyl-phenyl)-amine]	2320	1690	–
FC(F)(F)c1ccc(Nc2ncnc3sc(Cc4ccccc4)nc23)cn1 [Example 33, 2-Benzyl-N-[6-(trifluoromethyl)pyridin-3-yl][1,3]thiazolo[5,4-d]pyrimidin-7-amine]	813	111	–
Cc1cccc(C)c1Cc1nc2c(Nc3ccc(C(F)(F)F)nc3)ncnc2s1 [Example 59, 2-(2,6-Dimethylbenzyl)-N-[6-(trifluoromethyl)pyridin-3-yl][1,3]thiazolo[5,4-d]pyrimidin-7-amine]	139	183	–
FC(F)(F)c1ccc(Nc2ncnc3sc(Cc4ccccc4Cl)nc23)cn1 [Example 21, 2-(2-Chlorobenzyl)-N-[6-(trifluoromethyl)pyridin-3-yl][1,3]thiazolo[5,4-d]pyrimidin-7-amine]	79	54	–
O=S(=O)(c1ccc(Nc2ncnc3sc(Cc4c(Cl)cccc4Cl)nc23)cc1)C(F)(F)F [Example 14]	34	68	–
Cc1cccc(C)c1Cc1nc2c(Nc3ccccc3)ncnc2s1 [Example 55, 2-(2,6-Dimethylbenzyl)-N-phenyl[1,3]thiazolo[5,4-d]pyrimidin-7-amine]	3440	2860	–
N#Cc1ccccc1Cc1nc2c(Nc3ccc(C(F)(F)F)cc3)ncnc2s1 [Example 100, 2-[7-(4-Trifluoromethyl-phenylamino)-thiazolo[5,4-d]pyrimidin-2-ylmethyl]-benzonitrile]	126	62	–
FC(F)(F)c1ccc(Nc2nc(NCc3ccncc3)nc3sc(Cc4c(Cl)cccc4Cl)nc23)cc1 [Example 86, 2-(2,6-Dichloro-benzyl)-N^5-pyridin-4-ylmethyl-N^7-(4-trifluoromethyl-phenyl)-thiazolo[5,4-d]pyrimidine-5,7-diamine trifluoroacetic acid salt]	1070	187	–
FC(F)(F)c1ccc(Nc2nc(NCc3cccnc3)nc3sc(Cc4c(Cl)cccc4Cl)nc23)cc1 [Example 85, 2-(2,6-Dichloro-benzyl)-N^5-pyridin-3-ylmethyl-N^7-(4-trifluoromethyl-phenyl)-thiazolo[5,4-d]pyrimidine-5,7-diamine trifluoroacetic acid salt]	433	112	–
CN1CCN(S(=O)(=O)c2ccc(Nc3ncnc4sc(Cc5c(Cl)cccc5Cl)nc34)cc2)CC1 [Example 16, [2-(2,6-Dichloro-benzyl)-thiazolo[5,4-d]pyrimidin-7-yl]-[4-(4-methyl-piperazine-1-sulfonyl)-phenyl]-amine]	416	1090	–
CC(C)[Si](Sc1ccccc1Cc1nc2c(Nc3ccc(C(F)(F)F)cc3)ncnc2s1)(C(C)C)C(C)C [Example 104, (4-Trifluoromethyl-phenyl)-[2-(2-triisopropylsilanylsulfanyl-benzyl)-thiazolo[5,4-d]pyrimidin-7-yl]-amine]	125	–	69
Cc1cccc(C)c1Cc1nc2c(Nc3ccc(C(F)(F)F)cc3)ncnc2s1 [Example 58, 2-(2,6-Dimethylbenzyl)-N-[4-(trifluoromethyl)phenyl][1,3]thiazolo[5,4-d]pyrimidin-7-amine]	75	82	–
FC(F)(F)c1ccc(Nc2ncnc3sc(Cc4ccc(Cl)cc4)nc23)cn1 [Example 36, 2-(4-Chlorobenzyl)-N-[6-(trifluoromethyl)pyridin-3-yl][1,3]thiazolo[5,4-d]pyrimidin-7-amine]	2300	80	–
FC(F)(F)c1ccc(Nc2ncnc3sc(Cc4ccccc4Cl)nc23)nc1 [Example 96, [2-(2-Chloro-benzyl)-thiazolo[5,4-d]pyrimidin-7-yl]-(5-trifluoromethyl-pyridin-2-yl)-amine]	466	224	–
FC(F)(F)c1ccc(Nc2ncnc3sc(Cc4ccccc4)nc23)cc1 [Example 32, 2-Benzyl-N-[4-(trifluoromethyl)phenyl][1,3]thiazolo[5,4-d]pyrimidin-7-amine]	2920	55	–
FC(F)(F)c1ccc(Nc2nc(NCC3CC3)nc3sc(Cc4c(Cl)cccc4Cl)nc23)cc1 [Example 66, N^5-Cyclopropylmethyl-2-(2,6-dichloro-benzyl)-N^7-(4-trifluoromethyl-phenyl)-thiazolo[5,4-d]pyrimidine-5,7-diamine]	249	103	–
